Reference: patent US11578055B2, “Triazacyclododecansulfonamide (“TCD”)-based protein secretion inhibitors” (KEZAR LIFE SCIENCES, priority 2018, dated 2023)
Where two headings read alike, the source gives them in different places.

Columns and labels:
Human PBMC = Human PBMC CellTiter-Glo viability; assay type: cell-based; conditions: no stimulation, 24 hours
Experimental: (§1) Human PBMC were freshly isolated from whole blood collections of 3 normal donors utilizing density gradient centrifugation followed by red blood cell lysis. PBMC from each donor were assayed separately. Cells were suspended in RPMI 1640 media supplemented with 5% fetal bovine serum, 2 mM L-glutamine, 10 mM HEPES, and 1× penicillin/streptomycin. PBMC were seeded at 200,000 cells/well in 96-well round-bottom plates either without stimulation or with stimulation by lipopolysaccharide (LPS, 1 μg/mL) or antibodies against human CD3 (plate-bound, 2 μg/mL) and human CD28 (soluble, 2 μg/mL). Serial dilutions of compound in DMSO/media were simultaneously added and PBMC were incubated at 37° C., 5% CO2 for 24 hours. After 24 hours, plates were centrifuged and half of the supernatant volume removed for cytokine analysis by electrochemiluminescent immunoassay (U-PLEX® Biomarker Multiplex, Meso Scale Discovery). For viability analysis, CellTiter-Glo® (Promega) was added to the remaining material in each well and quantified via luminescent plate reader.

B16F10 cells = experiment: Efficacy study: tumor growth and body weight in a B16F10 model; assay type: in vivo, C57BL/6 mice; conditions: B16F10 refractory model, once-a-week dosing, compared to anti-PD-1 therapy
Experimental: Efficacy Study: Effect of Compound A87 on Tumor Growth and Body Weight in a B16F10 Model Comparted to Anti-PD-1 Therapy.
Female C57BL/6 mice (7-8 week old) were injected in the flank subcutaneously with 5×10^6 B16F10 cells in 0.1 ml on Day 0. On Day 3, compound A87 formulated in 10% ETOH/10% Kolliphor EL was administered IV 30 mg/kg QW, IV 10 mg/kg D1D2, or IP 15 mg/kg QOD. Anti-PD1 antibody treatment (RMP1-14 from Bioxcell, 200 μg) was administered i.p. on a QOD×3 dose schedule. Tumor size was monitored with a digital caliper (Fowler) every 2-3 d until reaching a size of 1.5-2.0 cm and expressed as volume (length×width×height). B16F10, a melanoma line, was obtained from ATCC. C57/BL6 mice were purchased from Charles rivers laboratories.

IL-23 = experiment: Human PBMC Cytokine Assay: IL-23; assay type: cell-based; conditions: LPS stimulation, 24 hours
Experimental: as §1

[1] = test system: multiple myeloma cell line U266B1; experiment: U266 Cell Viability Assay; assay type: cell-based, human; conditions: Homo sapiens, U-266, 48 hr
In short: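 Viability was measured by CellTiter-Glo luminescence after 48 h compound exposure at 37° C, 5% CO2. The cells were U266B1 multiple myeloma cells grown in RPMI 1640 plus 10% FBS. Where stereochemistry is not shown, values apply to the stereoisomer mixture.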

[2] = test system: target signal sequences plus 10 amino acids fused to Gaussia Luciferase; experiment: Transiently Expressed Dox Induced Signal Sequence-Gluc Assay; assay type: cell-based; conditions: read-out: Signal Sequence-Gluc potency
Experimental: FIp-In 293 T-REx™ cells were transfected with 500 ng pcDNA™5/FRT/TO plasmids inserted with cDNA encoding Gaussia Luciferase fused to the 3′ end of cDNA encoding target signal sequences plus 10 amino acids. Transfected cells were incubated overnight then cells were trypsinized and plated in 384-well tissue culture plates. The next day, compound dilutions in DMSO/media containing doxycycline were added to the wells and incubated at 37° C., 5% CO2.

[3] = test system: HER3 signal sequence plus 4 amino acids fused to Gaussia Luciferase (HER3-ss+4aa/Gaussia Luciferase); experiment: Dox Induced HER3-ss-Gluc Assay; assay type: cell-based; conditions: 24 hr, doxycycline induced, Flp-In 293 T-REx cells; read-out: 24 hr Dox Inducible Her3(ss + 4) Gluc 293FRT/TO: Mean 1050
In short: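 Stable Flp-In 293 T-REx line expressing HER3 signal sequence+4aa/Gaussia luciferase under doxycycline-inducible control. Cells plated the day before; compound dilutions added in doxycycline-containing medium and incubated at 37° C, 5% CO2.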

[4] = Target ADAM10 signal peptide +10 amino acids
[5] = Target B7H3 signal peptide +10 amino acids
[6] = Target CD73 signal peptide +10 amino acids
[7] = Target CD96 signal peptide +10 amino acids
[8] = Target CTLA-4 signal peptide +10 amino acids
[9] = Target EGFR signal peptide +10 amino acids
[10] = Target GP130 signal peptide +10 amino acids
[11] = Target HER3 signal peptide +10 amino acids
[12] = Target IFN-a1 signal peptide +10 amino acids
[13] = Target IFN-a2 signal peptide +10 amino acids
[14] = Target IFN-a4 signal peptide +10 amino acids
[15] = Target IFN-b signal peptide +10 amino acids
[16] = Target IFNAR1 signal peptide +10 amino acids
[17] = Target IFNAR2 signal peptide +10 amino acids
[18] = Target IL-1R1 signal peptide +10 amino acids
[19] = Target IL-1R2 signal peptide +10 amino acids
[20] = Target IL-1Ra (isoform 1) signal peptide +10 amino acids
[21] = Target IL-2Ra (CD25) signal peptide +10 amino acids
[22] = Target IL-6R signal peptide +10 amino acids
[23] = Target IL-6 signal peptide +10 amino acids
[24] = Target IL-7R signal peptide +10 amino acids
[25] = Target IL-12b (p40) signal peptide +10 amino acids
[26] = Target IL-17Ra signal peptide +10 amino acids
[27] = Target IL-17a signal peptide +10 amino acids
[28] = Target IL-23R signal peptide +10 amino acids
[29] = Target IL-23a signal peptide +10 amino acids
[30] = Target LAG3 signal peptide +10 amino acids
[31] = Target PD-L1 signal peptide +10 amino acids
[32] = Target PDGFRa signal peptide +10 amino acids
[33] = Target TACE (ADAM17) signal peptide +10 amino acids
[34] = Target TIGIT signal peptide +10 amino acids
[35] = Target TIM3 signal peptide +10 amino acids
[36] = Target TNFR1 signal peptide +10 amino acids
[37] = Target TNFR2 signal peptide +10 amino acids
[38] = Target VEGF signal peptide +10 amino acids
[39] = Target VGFR2 signal peptide +10 amino acids
[40] = Target VISTA signal peptide +10 amino acids

For `C[C@H]1CN(S(=O)(=O)c2ccc(N(C)C)cc2)CCCN(CC2CCCCC2)CCCN(S(=O)(=O)N2CCc3cc(Cl)ccc3C2)C1` [A87], the IC50 (Human PBMC) was > 25000 nM, the tumor growth inhibition (B16F10 cells) was “superior efficacy” and the IC50 (IL-23) was 200 nM. The EC50 ([1]; U266, read-out: 48 hr U266 Viability Celltiter-Glo: Mean EC50) was > 25000 nM, the IC50 [2, 4] was 231 nM and the IC50 [2, 5] was 27 nM. It also gave an IC50 [2, 6] of 58 nM, an IC50 [2, 7] of 12 nM and an IC50 [2, 8] of 259 nM. It also gave an IC50 [2, 9] of 60 nM, an IC50 [2, 10] of 201 nM and an IC50 [2, 11] of 89 nM. For the same compound, the IC50 [2, 12] was 128 nM, the IC50 [2, 13] was 51 nM and the IC50 [2, 14] was 221 nM. For the same compound, the IC50 [2, 15] was 818 nM, the IC50 [2, 16] was 14 nM and the IC50 [2, 17] was 133 nM. For the same compound, the IC50 [2, 18] was 374 nM, the IC50 [2, 19] was 23 nM and the IC50 [2, 20] was 111 nM. For the same compound, the IC50 [2, 21] was 159 nM, the IC50 [2, 22] was 78 nM and the IC50 [2, 23] was 66 nM. It also gave an IC50 [2, 24] of 58 nM, an IC50 [2, 25] of 155 nM and an IC50 [2, 26] of 424 nM. The IC50 [2, 27] was 447 nM, the IC50 [2, 28] was 111 nM and the IC50 [2, 29] was 567 nM. It also gave an IC50 [2, 30] of 75 nM, an IC50 [2, 31] of 56 nM and an IC50 [2, 32] of 90 nM. The IC50 [2, 33] was 66 nM, the IC50 [2, 34] was 162 nM and the IC50 [2, 35] was 282 nM. The IC50 [2, 36] was 307 nM, the IC50 [2, 37] was 564 nM and the IC50 [2, 38] was 111 nM. The IC50 [2, 39] was 684 nM and the IC50 [2, 40] was 211 nM.

With `COc1cc(F)ccc1N1CCN(S(=O)(=O)N2CCCN(CC3CCCCC3)CCCN(S(=O)(=O)c3ccc(N(C)C)cc3)C[C@H](C)C2)CC1` [A137] the IC50 (Human PBMC) was > 25000 nM, the IC50 (IL-23) was 79 nM and the EC50 ([1]; U266, Celltiter-Glo) was > 25000 nM. For the same compound, the IC50 [2, 4] was 127 nM, the IC50 [2, 5] was 9 nM and the IC50 [2, 6] was 44 nM. It also gave an IC50 [2, 7] of 7 nM, an IC50 [2, 8] of 112 nM and an IC50 [2, 9] of 47 nM. It also gave an IC50 [2, 10] of 161 nM, an IC50 [2, 11] of 57 nM and an IC50 [2, 12] of 57 nM. For the same compound, the IC50 [2, 13] was 44 nM, the IC50 [2, 14] was 89 nM and the IC50 [2, 15] was 288 nM. The IC50 [2, 16] was 6 nM, the IC50 [2, 17] was 42 nM and the IC50 [2, 18] was 282 nM. It also gave an IC50 [2, 19] of 17 nM, an IC50 [2, 20] of 47 nM and an IC50 [2, 21] of 55 nM. It also gave an IC50 [2, 22] of 48 nM, an IC50 [2, 23] of 38 nM and an IC50 [2, 24] of 16 nM. For the same compound, the IC50 [2, 25] was 74 nM, the IC50 [2, 26] was 176 nM and the IC50 [2, 27] was 216 nM. The IC50 [2, 28] was 47 nM, the IC50 [2, 29] was 223 nM and the IC50 [2, 30] was 48 nM. The IC50 [2, 31] was 19 nM, the IC50 [2, 32] was 37 nM and the IC50 [2, 33] was 40 nM. The IC50 [2, 34] was 79 nM, the IC50 [2, 35] was 132 nM and the IC50 [2, 36] was 152 nM. The IC50 [2, 37] was 186 nM, the IC50 [2, 38] was 51 nM and the IC50 [2, 39] was 213 nM. The IC50 [2, 40] was 150 nM and the IC50 [3] was 10.8 nM.

In the case of `COc1cc(F)ccc1N1CCN(S(=O)(=O)N2CCCN(CC3CCCCC3)CCCN(S(=O)(=O)c3ccc(N(C)C)cc3)C[C@H](C)C2)C[C@H]1C` [A177, 4-{[(3S)-9-(cyclohexylmethyl)-5-{[(3 R)-4-(4-fluoro-2-methoxyphenyl)-3-methylpiperazin-1-yl]sulfonyl}-3-methyl-1,5,9-triazacyclododecan-1-yl]sulfonyl}-N,N-dimethylaniline], the IC50 (Human PBMC) is reported as > 25000 nM, the IC50 (IL-23) is reported as 54 nM and the EC50 ([1]; U266, Celltiter-Glo) is reported as > 25000 nM. The IC50 [3] was 10.9 nM.

`C[C@H]1CN(S(=O)(=O)c2ccc(N(C)C)cc2)CCCN(CC2CCCCC2)CCCN(S(=O)(=O)N2CCc3c(C#N)cccc3C2)C1` [A151, 2-{[(3S)-9-(cyclohexylmethyl)-5-[4-(dimethylamino)benzenesulfonyl]-3-methyl-1,5,9-triazacyclododecan-1-yl]sulfonyl}-1,2,3,4-tetrahydroisoquinoline-5-carbonitrile] was tested, and the EC50 ([1]; U266, Celltiter-Glo) was > 25000 nM, the IC50 [2, 4] was 849 nM and the IC50 [2, 5] was 201 nM. It also gave an IC50 [2, 6] of 375 nM, an IC50 [2, 7] of 107 nM and an IC50 [2, 8] of 1140 nM. The IC50 [2, 9] was 412 nM, the IC50 [2, 10] was 969 nM and the IC50 [2, 11] was 522 nM. The IC50 [2, 12] was 820 nM, the IC50 [2, 13] was 404 nM and the IC50 [2, 14] was 1130 nM. It also gave an IC50 [2, 15] of 4300 nM, an IC50 [2, 16] of 145 nM and an IC50 [2, 17] of 778 nM. It also gave an IC50 [2, 18] of 1470 nM, an IC50 [2, 19] of 168 nM and an IC50 [2, 20] of 666 nM. It also gave an IC50 [2, 21] of 876 nM, an IC50 [2, 22] of 445 nM and an IC50 [2, 23] of 437 nM. The IC50 [2, 24] was 392 nM, the IC50 [2, 25] was 913 nM and the IC50 [2, 26] was 1860 nM. It also gave an IC50 [2, 27] of 1820 nM, an IC50 [2, 28] of 666 nM and an IC50 [2, 29] of 1920 nM. For the same compound, the IC50 [2, 30] was 464 nM, the IC50 [2, 31] was 366 nM and the IC50 [2, 32] was 565 nM. It also gave an IC50 [2, 33] of 391 nM, an IC50 [2, 34] of 737 nM and an IC50 [2, 35] of 1350 nM. The IC50 [2, 36] was 1620 nM, the IC50 [2, 37] was 2110 nM and the IC50 [2, 38] was 645 nM. For the same compound, the IC50 [2, 39] was 2590 nM, the IC50 [2, 40] was 911 nM and the IC50 [3] was 276 nM.
